In patent US9907800B2, “Kinase inhibitors and method of treating cancer” (University Health Network, priority 2010, dated 2018):
Where a name gives a salt, the structure may show the parent alone.

Assays:
Aurora B = Aurora B (Homo sapiens (Human), UniProt Q96GD4); experiment: Aurora B inhibition assay (Z-Lyte); assay type: biochemical; conditions: read-out: Aurora B IC50 Ranges
human PLK4 = human PLK4 (Homo sapiens (Human), UniProt O00444); experiment: PLK4 inhibition assay (indirect ELISA); assay type: biochemical; conditions: read-out: PLK4 IC50 Ranges
human PLK4, sequence (O00444 1-391): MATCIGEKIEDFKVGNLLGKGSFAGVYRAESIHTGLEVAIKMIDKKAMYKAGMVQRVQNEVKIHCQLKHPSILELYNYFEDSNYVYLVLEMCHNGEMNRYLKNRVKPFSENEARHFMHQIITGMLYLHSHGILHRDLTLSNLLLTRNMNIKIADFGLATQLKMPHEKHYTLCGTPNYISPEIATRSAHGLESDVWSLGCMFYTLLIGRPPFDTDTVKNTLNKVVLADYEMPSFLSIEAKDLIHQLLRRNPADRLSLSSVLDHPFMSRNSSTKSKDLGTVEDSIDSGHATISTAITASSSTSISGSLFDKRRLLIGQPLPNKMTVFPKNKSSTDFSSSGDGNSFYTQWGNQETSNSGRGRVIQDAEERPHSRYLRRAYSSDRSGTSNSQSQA

Aurora B, sequence (Q96GD4 whole entry): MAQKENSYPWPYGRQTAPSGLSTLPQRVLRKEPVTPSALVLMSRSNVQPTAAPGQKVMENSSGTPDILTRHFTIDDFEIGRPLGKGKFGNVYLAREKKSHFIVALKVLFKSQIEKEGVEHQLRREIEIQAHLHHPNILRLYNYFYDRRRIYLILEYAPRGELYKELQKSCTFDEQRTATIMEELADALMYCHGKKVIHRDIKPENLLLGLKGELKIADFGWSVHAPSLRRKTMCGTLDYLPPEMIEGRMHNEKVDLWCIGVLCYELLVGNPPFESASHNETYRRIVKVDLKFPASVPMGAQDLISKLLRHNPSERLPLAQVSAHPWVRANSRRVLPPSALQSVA

| IC50 (Aurora B) [nM] | IC50 (human PLK4) [nM] | Structure (SMILES) |
| --- | --- | --- |
| < 100 | < 100 | COc1ccc2c(c1)[C@]1(C[C@H]1c1ccc3c(/C=C/c4ccc(CN5[C@H](C)CCC[C@@H]5C)cc4)n[nH]c3c1)C(=O)N2 [Example A203, (1R,2S)-(E)-2-(3-(4-((cis-2,6-dimethylpiperidin-1-yl)methyl)styryl)-1H-indazol-6-yl)-5′-methoxyspiro[cyclopropane-1,3′-indolin]-2′-one 2,2,2-trifluoroacetate] |
| < 100 | < 100 | COc1ccc2c(c1)[C@]1(C[C@H]1c1ccc3c(/C=C/c4csc(CN(C)C)c4)n[nH]c3c1)C(=O)N2 (relative stereo) [Example A181, (1R,2S)-2-(3-((E)-2-(5-((dimethylamino)methyl)thiophen-3-yl)vinyl-1H-indazol-6-yl)-5′-methoxyspiro[cyclopropane-1,3′-indolin]-2′-one 2,2,2-trifluoro acetate] |
| < 100 | < 100 | C[C@@H]1CCC[C@H](C)N1Cc1ccc(/C=C/c2n[nH]c3cc([C@@H]4C[C@@]45C(=O)Nc4ccccc45)ccc23)cc1 [Example A201, (1R,2S)-(E)-2-(3-(4-((cis-2,6-dimethylpiperidin-1-yl)methyl)styryl)-1H-indazol-6-yl)spiro[cyclopropane-1,3′-indolin]-2′-one 2,2,2-trifluoroacetate] |
| < 100 | < 100 | COc1ccc2c(c1)[C@]1(C[C@H]1c1ccc3c(-c4ccc5nccn5c4)n[nH]c3c1)C(=O)N2 [Example A107, (1R,2S)-2-(3-(imidazo[1,2-a]pyridin-6-yl)-1H-indazol-6-yl)-5′-methoxyspiro[cyclopropane-1,3′-indolin]-2′-one 2,2,2-trifluoroacetate] |
| < 100 | < 100 | COc1ccc2c(c1)[C@]1(C[C@H]1c1ccc3c(-c4ccnc(N5CCN(C)CC5)c4)n[nH]c3c1)C(=O)N2 (relative stereo) [Example A37, (1R*,2S*)-5′-Methoxy-2-(3-(2-(4-methylpiperazin-1-yl)pyridin-4-yl)-1H-indazol-6-yl)spiro[cyclopropane-1,3′-indolin]-2′-one] |
| < 100 | < 100 | COc1ccc2c(c1)[C@]1(C[C@H]1c1ccc3c(C#Cc4cccnc4)n[nH]c3c1)C(=O)N2 (relative stereo) [Example A52, (1R*,2S*)- and (1R*,2S*)-5′-methoxy-2-(3-(pyridin-3-ethynyl)-1H-indazol-6-yl)spiro[cyclopropane-1,3′-indolin]-2′-one] |
| < 100 | < 100 | O=C1Nc2ncc(Br)cc2[C@]12C[C@H]2c1ccc2c(/C=C/c3cccnc3)n[nH]c2c1 (relative stereo) [Example A27, (1R*,2S*)-5′-bromo-2-(3-((E)-2-(pyridin-3-yl)vinyl-1H-indazol-6-yl)spiro[cyclopropane-1,3′-pyrrolo[2,3-b]pyridin]-2′(1′H)-one] |
| < 100 | < 100 | O=C1Nc2ccccc2[C@]12C[C@H]2c1ccc2c(/C=C/c3csc(CN4CCOCC4)c3)n[nH]c2c1 [Example A202, (1R,2S)-2-(3-((E)-2-(5-(morpholinomethyl)thiophen-3-yl)vinyl)-1H-indazol-6-yl)spiro[cyclopropane-1,3′-indolin]-2′-one 2,2,2-trifluoroacetate] |
| < 100 | < 100 | COc1ccc2c(c1)[C@]1(C[C@H]1c1ccc3c(/C=C/c4ccc(OCCN5CCOCC5)cc4)n[nH]c3c1)C(=O)N2 [Example A194, (1R,2S)-(E)-5′-methoxy-2-(3-(4-(2-morpholinoethoxy)styryl)-1H-indazol-6-yl)spiro[cyclopropane-1,3′-indolin]-2′-one 2,2,2-trifluoroacetate] |
| < 100 | < 100 | COc1ccc2c(c1)[C@]1(C[C@H]1c1ccc3c(/C=C/c4cc(F)c(CN(C)C)c(F)c4)n[nH]c3c1)C(=O)N2 [Example A216, (1R,2S)-(E)-2-(3-(4-((dimethylamino)methyl)-3,5-difluorostyryl)-1H-indazol-6-yl)-5′-methoxyspiro[cyclopropane-1,3′-indolin]-2′-one 2,2,2-trifluoroacetate] |
| < 100 | < 100 | CCN(CC)Cc1ccc(/C=C/c2n[nH]c3cc([C@@H]4C[C@@]45C(=O)Nc4ccc(OC)cc45)ccc23)cc1 [Example A206, (1R,2S)-(E)-2-(3-(4-((diethylamino)methyl)styryl)-1H-indazol-6-yl)-5′-methoxy spiro[cyclopropane-1,3′-indolin]-2′-one 2,2,2-trifluoroacetate] |
| < 100 | < 100 | COc1ccc2c(c1)[C@]1(C[C@H]1c1ccc3c(/C=C/c4ccc5c(c4)CN(C)CC5)n[nH]c3c1)C(=O)N2 [Example A64, (1R,2S)-5′-methoxy-2-(3-((E)-2-(2-methyl-1,2,3,4-tetrahydroisoquinolin-7-yl)vinyl)-1H-indazol-6-yl)spiro[cyclopropane-1,3′-indolin]-2′-one 2,2,2-trifluoroacetate salt] |
| 100 to 1000 | < 100 | NS(=O)(=O)c1cccc(-c2n[nH]c3cc([C@@H]4C[C@@]45C(=O)Nc4ccccc45)ccc23)c1 (relative stereo) [Example A130, 3-(6-((1R*,2S*)-2′-oxospiro[cyclopropane-1,3′-indoline]-2-yl)-1H-indazol-3-yl)benzenesulfonamide] |
| < 100 | < 100 | COc1ccc2c(c1)[C@]1(C[C@H]1c1ccc3c(/C=C/c4ccc(CN5CCCOCC5)cc4)n[nH]c3c1)C(=O)N2 [Example A73, (1R,2S)-(E)-2-(3-(4-((1,4-oxazepan-4-yl)methyl)styryl)-1H-indazol-6-yl)-5′-methoxyspiro[cyclopropane-1,3′-indolin]-2′-one 2,2,2-trifluoroacetate salt] |
| < 100 | < 100 | COc1ccc2c(c1)[C@]1(C[C@H]1c1ccc3c(-c4ccc(OCCN5CCCCC5)cc4)n[nH]c3c1)C(=O)N2 [Example A67, (1R,2S)-5′-methoxy-2-(3-(4-(2-(piperidin-1-yl)ethoxy)phenyl)-1H-indazol-6-yl)spiro[cyclopropane-1,3′-indolin]-2′-one 2,2,2-trifluoroacetate salt] |
| < 100 | < 100 | COc1ccc2c(c1)[C@]1(C[C@H]1c1ccc3c(/C=C/c4ccc5c(c4)CNCC5)n[nH]c3c1)C(=O)N2 [Example A66, (1R,2S)-5′-methoxy-2-(3-((E)-2-(1,2,3,4-tetrahydroisoquinolin-7-yl)vinyl)-1H-indazol-6-yl)spiro[cyclopropane-1,3′-indolin]-2′-one 2,2,2-trifluoroacetate salt] |

| Structure (SMILES) | IC50 (Aurora B) [nM] | IC50 (human PLK4) [nM] |
| --- | --- | --- |
| COc1ccc2c(c1)[C@]1(C[C@H]1c1ccc3c(-c4ccc(OCCN(C)C)cc4)n[nH]c3c1)C(=O)N2 [Example A69, (1R,2S)-2-(3-(4-(2-(dimethylamino)ethoxy)phenyl)-1H-indazol-6-yl)-5′-methoxyspiro[cyclopropane-1,3′-indolin]-2′-one 2,2,2-trifluoroacetate salt] | < 100 | < 100 |
| COc1ccc2c(c1)[C@]1(C[C@H]1c1ccc3c(-c4ccc(N5CCN(CCO)CC5)cc4)n[nH]c3c1)C(=O)N2 [Example A191, (1R,2S)-2-(3-(4-(4-(2-hydroxyethyl)piperazin-1-yl)phenyl)-1H-indazol-6-yl)-5′-methoxyspiro[cyclopropane-1,3′-indolin]-2′-one 2,2,2-trifluoroacetate] | < 100 | < 100 |
| CN1C(=O)[C@@]2(C[C@H]2c2ccc3c(/C=C/c4ccc(N5CCNCC5)cc4)n[nH]c3c2)c2ccccc21 [Example A90, (1R,2S)-(E)-1′-methyl-2-(3-(4-(piperazin-1-yl)styryl)-1H-indazol-6-yl)spiro[cyclopropane-1,3′-indolin]-2′-one hydrochloride] | < 100 | < 100 |
| COc1ccc2c(c1)[C@]1(C[C@H]1c1ccc3c(/C=C/c4ccc(CC5CCN(C)CC5)cc4)n[nH]c3c1)C(=O)N2 [Example A82, (1R,2S)-(E)-5′-methoxy-2-(3-(4-((1-methylpiperidin-4-yl)methyl)styryl)-1H-indazol-6-yl)spiro[cyclopropane-1,3′-indolin]-2′-one 2,2,2-trifluoroacetate salt] | < 100 | < 100 |
| CN1CCC(Cc2ccc(/C=C/c3n[nH]c4cc([C@@H]5C[C@@]56C(=O)Nc5ccccc56)ccc34)cc2)CC1 [Example A81, (1R,2S)-(E)-2-(3-(4-((1-methylpiperidin-4-yl)methyl)styryl)-1H-indazol-6-yl)spiro[cyclopropane-1,3′-indolin]-2′-one 2,2,2-trifluoroacetate salt] | < 100 | < 100 |
| COc1ccc2c(c1)[C@]1(C[C@H]1c1ccc3c(/C=C/c4ccc(CN5CCOCC5)c(F)c4)n[nH]c3c1)C(=O)N2 [Example A199, (1R,2S)-(E)-2-(3-(3-fluoro-4-(morpholinomethyl)styryl)-1H-indazol-6-yl)-5′-methoxyspiro[cyclopropane-1,3′-indolin]-2′-one 2,2,2-trifluoroacetate] | < 100 | < 100 |
| CN1C(=O)[C@@]2(C[C@H]2c2ccc3c(/C=C/c4ccc(CN5CCCCC5)cc4)n[nH]c3c2)c2ccccc21 (relative stereo) [Example A95, (1R*,2S*)-(E)-1′-methyl-2-(3-(4-(piperidin-1-ylmethyl)styryl)-1H-indazol-6-yl)spiro[cyclopropane-1,3′-indolin]-2′-one 2,2,2-trifluoroacetate] | < 100 | < 100 |
| CN1C(=O)[C@@]2(C[C@H]2c2ccc3c(/C=C/c4ccc(CN5CCOCC5)cc4)n[nH]c3c2)c2ccccc21 (relative stereo) [Example A87, (1R*,2S*)-(E)-1′-methyl-2-(3-(4-(morpholinomethyl)styryl)-1H-indazol-6-yl)spiro[cyclopropane-1,3′-indolin]-2′-one 2,2,2-trifluoroacetate] | < 100 | < 100 |
| O=C1Nc2ccccc2[C@]12C[C@H]2c1ccc2c(/C=C/c3ccc(N4CCNCC4)cc3)n[nH]c2c1 [Example A92, (1R,2S)-(E)-2-(3-(4-(piperazin-1-yl)styryl)-1H-indazol-6-yl)spiro[cyclopropane-1,3′-indolin]-2′-one 2,2,2-trifluoroacetate] | < 100 | < 100 |
